From patent US9226937B2 (priority 2011, dated 2016)

Legend:
cardiac stem cells = conditions: rats, cited from earlier work
SIRT1 = target: T1, SIRT1 (Homo sapiens, UniProt Q96EB6); test: SIRT1 Fluorescent Activity Assay/Drug Discovery Kit AK-555; format: biochemical; conditions: stored under ambient conditions
T1 construct: purchased Biomol Research Laboratories, Inc. AK-555
T1 sequence (Q96EB6 1-747): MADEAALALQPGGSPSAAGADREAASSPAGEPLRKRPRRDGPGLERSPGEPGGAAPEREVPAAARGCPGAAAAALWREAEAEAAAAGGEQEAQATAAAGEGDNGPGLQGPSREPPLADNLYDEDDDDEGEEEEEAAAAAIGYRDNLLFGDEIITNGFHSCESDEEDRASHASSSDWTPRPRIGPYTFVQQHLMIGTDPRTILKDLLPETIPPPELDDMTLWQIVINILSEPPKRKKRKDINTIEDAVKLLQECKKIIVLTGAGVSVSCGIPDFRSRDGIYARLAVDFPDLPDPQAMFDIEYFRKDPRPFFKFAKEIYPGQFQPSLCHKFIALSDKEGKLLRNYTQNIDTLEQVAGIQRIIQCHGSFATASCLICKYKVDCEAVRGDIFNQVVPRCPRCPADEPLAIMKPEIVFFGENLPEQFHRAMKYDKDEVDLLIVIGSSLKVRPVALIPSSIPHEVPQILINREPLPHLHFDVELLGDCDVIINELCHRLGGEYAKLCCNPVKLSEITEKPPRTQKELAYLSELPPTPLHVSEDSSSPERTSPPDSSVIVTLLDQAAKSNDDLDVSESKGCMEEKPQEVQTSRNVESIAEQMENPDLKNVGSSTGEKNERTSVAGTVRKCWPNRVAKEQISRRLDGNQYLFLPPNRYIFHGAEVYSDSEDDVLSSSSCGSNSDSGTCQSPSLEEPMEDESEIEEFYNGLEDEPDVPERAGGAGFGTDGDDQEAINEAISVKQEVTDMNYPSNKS
Source text: Small molecules in the form of resveratrol were obtained via ethanol extraction from Vitis vinifera and Polygonum cuspidatum. […] The extract was kept in a nitrogen environment and added to a mixture including approximately 25% by weight quercetin; 33% by weight lecithin; and 9% phytic acid (in the form of rice bran extract). […] The resulting slurry was placed into a capsule-filling machine. Individual dosages were encapsulated in gelatin capsules tinted with titanium oxide (Licaps® capsules available from Capsugel; Greenwood, S.C.; www.capsugel.com). The dosages were encapsulated in a substantially oxygen-free environment using a capsule-filling machine continually flushed with nitrogen (the Capsugel CFS 1000 Capsule Filling and Sealing Machine, available from Capsugel; Greenwood, S.C.; www.capsugel.com). […] These capsule samples were stored under ambient conditions for approximately eight months. The samples were tested for biological activity by determining whether each sample could activate sirtuin enzymes and, in particular, whether the samples stimulated SIRT1 catalytic activity. The samples were tested four months and eight months after encapsulation. Tests were performed using a SIRT1 Fluorescent Activity Assay/Drug Discovery Kit AK-555 (available from Biomol® Research Laboratories, Inc.; Plymouth Meeting, Pa.; www.biomol.com).

injected tumors = conditions: mice with injected tumors; cited from earlier work
rhabdomyosarcoma cells = conditions: low dosage; cited from earlier work
fibrosarcoma cells = conditions: cited from earlier work

SMILES: Oc1ccc(/C=C/c2cc(O)cc(O)c2)cc1 [resveratrol, 3,4′,5-trihydroxy-trans-stilbene]
- cardiac functional parameters (left ventricular ejection fraction, fractional shortening) (cardiac stem cells; low dose (2.5 mg per kilogram) for two weeks prior to injection of cardiac stem cells): significantly improved
- stem cell survival and proliferation (cardiac stem cells; low dose for two weeks prior to injection of cardiac stem cells): enhanced stem cell survival and proliferation

SMILES: O=c1c(O)c(-c2ccc(O)c(O)c2)oc2cc(O)cc(O)c12 [quercetin]
- biological activity of encapsulated quercetin (ability to stimulate SIRT1 activity compared to when no quercetin is present) (SIRT1): maintained biological activity

SMILES: O=P(O)(O)O[C@H]1[C@H](OP(=O)(O)O)[C@@H](OP(=O)(O)O)[C@H](OP(=O)(O)O)[C@@H](OP(=O)(O)O)[C@H]1OP(=O)(O)O [IP6, (2,3,4,5,6-pentaphosphonooxycyclohexyl)dihydrogen phosphate]
- tumor size versus non-treated mice (injected tumors): 50 times smaller
- suppression of growth of rhabdomyosarcoma cells (rhabdomyosarcoma cells): 50%
- survival of mice with injected fibrosarcoma cells (fibrosarcoma cells): prolong their survival
- growth of injected fibrosarcoma cells (fibrosarcoma cells; mice): reduce the growth
